Reference: patent EP0402469B1, “CATECHOL COMPOUNDS, PROCESS FOR THEIR PREPARATION AND PHARMACEUTICAL PREPARATION CONTAINING SAME” (TERUMO KABUSHIKI KAISHA, priority 1988, dated 1989)

Test system: Wistar type male rat
Assay: Activity to resist growth of ulcer (ethanol hydrochloric acid induced gastric injury)
Format: in vivo
Conditions: 30mg/kg orally, 1 hour before oral ethanol hydrochloric acid, ulcer index 1 hour later
Protocol: A Wistar type male rat (body weight 150 to 200 g) was fasted for 24 hours, then orally administered with a catechol compound according with the present invention and, on elapse of 1 hour thereafter, orally administered with ethanol hydrochloric acid (having 150 mM hydrochloric acid contained in 60% ethanol) at a rate of 0.5 ml/100 g of body weight.
After 1 hour following the oral administration of ethanol hydrochloric acid, the rat was sacrified with ether. The stomach was excited from the corpse, treated with formalin, and visually examined to measure lengths of injuries generated on the glanular part of the stomach. The total of injuries was reported as an ulcer index of the rat in question.
The term "ratio of inhibiting formation of ulcer (%)" as used in the table refers to a numerical value obtained by subtracting the ulcer index of a rat orally administered with a given catechol compound according with the present invention from the ulcer index of a rat not orally administered with catechol compound and multiplying the difference by 100.

Structure (SMILES)	Ratio of inhibiting formation of ulcer (%)
CCCCCCCCCC(O)CC(=O)CCc1ccc(O)c(O)c1 (stereo not drawn) [Example 4, 1-(3,4-hydroxyphenyl)-5-hydroxytetradecan-3-one]	84.4%

Same assay, conditions: 30mg/kg orally, 1 hour before oral ethanol hydrochloric acid, ulcer index 1 hour later, read-out: Ratio of inhibiting formation of ulcer (%)

Structure (SMILES)	inhibition in vivo at 30 mg/kg
CCCC(=O)CC(=O)C=Cc1ccc(O)c(O)c1 [Example 11, 1-(3,4-dihydroxyphenyl)-1-octen-3,5-dione]	58.7%
CCCCCCCC(=O)CC(=O)CCc1ccc(O)c(O)c1 [Example 8, 1-(3,4-dihydroxyphenyl)-3,5-dodecane dione]	88.3%
CCCCCCCC(=O)CC(=O)C=Cc1ccc(O)c(O)c1 [Example 7, 1-(3,4-dihydroxyphenyl)-1-dodecen-3,5-dione]	85.7%
CCCCCC(=O)CC(=O)CCc1ccc(O)c(O)c1 [Example 10, 1-(3,4-dihydroxyphenyl)-3,5-decane dione]	84.6%
CCCCCCCCCC(=O)CC(=O)CCc1ccc(O)c(O)c1 [Example 2, 1-(3,4-dihydroxyphenyl)-3,5-tetradecane dione]	92.1%
CCCC(=O)CC(=O)CCc1ccc(O)c(O)c1 [Example 12, 1-(3,4-dihydroxyphenyl)-3,5-octadione]	81.8%
CCCCCC(=O)CC(=O)C=Cc1ccc(O)c(O)c1 [Example 9, 1-(3,4-dihydroxyphenyl)-1-decen-3,5-dione]	77.9%
CCCCCCCCCC(=O)CC(=O)C=Cc1ccc(O)c(O)c1 [Example 1, 1-(3,4-dihydroxyphenyl)-1-tetradecen-3,5-dione]	82.4%
